From paper PMC8900464 (Journal of medicinal chemistry, 2022)
“Also recorded” adds a separate entry of the source.

Legend:
PC-3 xenografts [1] = conditions: PC3 xenograft, 75 mg/kg once daily IP; cited from earlier work
total AKT (T-AKT) = test: Immunoblotting of total AKT in BT474 cells; assay type: cell-based; conditions: BT474 cells, 1 μM, 24 h, western blot
MDA-MB-468 cells = test: Cell proliferation assay; assay type: cell-based; conditions: 5 days
PC3 cells = test: Cell proliferation assay; assay type: cell-based, human; conditions: 5 days
[2] = system: P-AKT (S473), P-PRAS40 (T246), P-S6 (S240/244); test: Immunoblotting of P-AKT and downstream signaling in BT474 cells; assay type: cell-based; conditions: 24 h
T-AKT [3] = test: T-AKT degradation in PC3 cells; assay type: cell-based, human
P-PRAS40, P-S6 = test: Downstream signaling in PC3 cells; conditions: for downstream signaling inhibition after washout: 1 μM for 24 h, then washout
T-AKT [4] = test: Competition; assay type: cell-based, human; conditions: PC3 cells, then compound 24 h
BT474 cells = test: Cell colony formation assay; assay type: cell-based; conditions: 14 days
T-AKT, P-AKT, P-PRAS40 = test: Western blotting analysis of xenograft tumor samples; assay type: in vivo, mice; conditions: PC3 xenograft, 75 mg/kg once daily IP, end of study
PC-3 xenografts [5] = assay type: in vivo; conditions: PC3 xenograft mice, 75 mg/kg once daily IP, 22 days
[6] = BT474 cells, 1 μM, western blot

4-Amino-N-[(1S)-1-(4-chlorophenyl)-3-hydroxypropyl]-1-(7H-pyrrolo[2,3-d]pyrimidin-4-yl)piperidine-4-carboxamide [AZD5363, reference compound]
tumor growth inhibition (PC-3 xenografts [1]): 75%
T-AKT protein level (total AKT (T-AKT)): downregulated the T-AKT protein level
GI50 (MDA-MB-468 cells): 3.8 ± 1.6 µM
GI50 (PC3 cells): 6.5 ± 2.9 µM
downstream signaling (PRAS40 and S6 phosphorylation) [2, 6]: effectively inhibited the phosphorylation of downstream PRAS40 and ribosomal protein S6
phosphorylated AKT level [2, 6]: paradoxically upregulated the phosphorylated AKT level
AKT protein level (T-AKT [3]; 1 μM, 24 h): did not significantly reduce the AKT protein level
downstream signaling inhibition after washout (P-PRAS40, P-S6; 24 h post-treatment): near fully recovered
PRAS40 and S6 phosphorylation (P-PRAS40, P-S6; 1 μM, 24 h): effectively inhibited PRAS40 and S6 phosphorylation

Cc1ncsc1-c1ccc(CNC(=O)[C@@H]2C[C@@H](O)CN2C(=O)[C@@H](NC(=O)CCCCCCCCCCC(=O)N2CCN(CC[C@H](NC(=O)C3(N)CCN(c4ncnc5[nH]ccc45)CC3)c3ccc(Cl)cc3)CC2)C(C)(C)C)cc1 [Compound 20, 4-Amino-N-((S)-1-(4-chlorophenyl)-3-(4-(12-(((S)-1-((2S,4R)-4-hydroxy-2-((4-(4-methylthiazol-5-yl)benzyl)carbamoyl)pyrrolidin-1-yl)-3,3-dimethyl-1-oxobutan-2-yl)amino)-12-oxododecanoyl)-piperazin-1-yl)propyl)-1-(7H-pyrrolo[2,3-d]pyrimidin-4-yl)-piperidine-4-carboxamide]
AKT degradation after pretreatment with MLN4924 or MG-132 (T-AKT [4]; 2 h pretreatment): significantly diminished the AKT degradation effect
AKT degradation after pretreatment with excess AZD5363 (T-AKT [4]; AZD5363 (1 μM) 2 h): rescued the AKT protein level
AKT degradation after pretreatment with excess VHL ligand VHL-2 (T-AKT [4]; VHL-2 (1 μM) 2 h): restored the AKT protein level effectively
inhibition of colony formation (BT474 cells): highly effective in inhibiting colony formation; also recorded: effectively inhibited colony formation
downstream signaling inhibition ([2]; BT474 cells, 1, 5 and 10 μM, P-PRAS40 and P-S6, western blot): slightly enhanced downstream signaling inhibition compared to 19
time to complete depletion of T-AKT (T-AKT [3]; 1 μM): ≤ 8 h
T-AKT level after washout (T-AKT [3]; 1 μM for 24 h, then washout, 48 h post-treatment): partially recovered
duration of sustained AKT degradation post treatment (T-AKT [3]; washout experiments): 1 to 2 days
T-AKT and P-AKT in tumor samples (T-AKT, P-AKT, P-PRAS40): substantially degraded T-AKT and P-AKT
downstream signaling (PRAS40 phosphorylation) in tumor samples (T-AKT, P-AKT, P-PRAS40): effectively inhibited the downstream signaling
downstream signaling inhibition after washout (P-PRAS40, P-S6; 48 h post-treatment): partially recovered
tolerability (PC-3 xenografts [5]): well tolerated
